Settings: Liquid, Vibrating tube method

CCF [fluoroethane]
Settings	mass density [kg/m3]
283.5 K, 49990 kPa	805.67
283.5 K, 60000 kPa	816.48
283.5 K, 69990 kPa	826.06
283.5 K, 79970 kPa	834.87
283.5 K, 90040 kPa	843.3
283.51 K, 10000 kPa	747.35
283.51 K, 15000 kPa	756.91
283.51 K, 20000 kPa	765.51
283.51 K, 25000 kPa	773.62
283.51 K, 30000 kPa	780.86
283.51 K, 40000 kPa	794.13
283.51 K, 100000 kPa	851.08
283.52 K, 1000 kPa	727.11
283.52 K, 3000 kPa	731.96
283.52 K, 4990 kPa	736.6
293.2 K, 1010 kPa	706.97
293.2 K, 3010 kPa	712.87
293.21 K, 5010 kPa	718.27
293.21 K, 10010 kPa	730.51
293.21 K, 15010 kPa	741.15
293.21 K, 20000 kPa	750.65
293.21 K, 25010 kPa	759.29
293.21 K, 30010 kPa	767.25
293.21 K, 70000 kPa	815.59
293.21 K, 80000 kPa	825
293.22 K, 40010 kPa	781.39
293.22 K, 50000 kPa	793.87
293.22 K, 60000 kPa	805.15
293.22 K, 90000 kPa	833.51
293.22 K, 99990 kPa	841.66
303.23 K, 3010 kPa	692.69
303.23 K, 5010 kPa	699.12
303.23 K, 10000 kPa	713.26
303.23 K, 15000 kPa	725.31
303.23 K, 20010 kPa	735.85
303.23 K, 30000 kPa	753.95
303.24 K, 25010 kPa	745.33
303.24 K, 40010 kPa	769.21
303.24 K, 50000 kPa	782.6
303.24 K, 60000 kPa	794.39
303.24 K, 70000 kPa	805.57
303.24 K, 80000 kPa	815.36
303.25 K, 90000 kPa	824.43
303.25 K, 100000 kPa	832.9
313.14 K, 3000 kPa	669.48
313.14 K, 5000 kPa	677.22
313.14 K, 10000 kPa	694
313.14 K, 15000 kPa	707.5
313.15 K, 20000 kPa	719.54
313.15 K, 25000 kPa	729.96
313.15 K, 30010 kPa	739.29
313.15 K, 40000 kPa	755.43
313.15 K, 50000 kPa	770.06
313.15 K, 60000 kPa	782.28
313.15 K, 70000 kPa	794.18
313.15 K, 80000 kPa	804.63
313.16 K, 90000 kPa	814.08
313.16 K, 100000 kPa	822.46
323 K, 3000 kPa	644.53
323 K, 5000 kPa	654.18
323 K, 10000 kPa	673.87
323 K, 15000 kPa	689.57
323 K, 20000 kPa	702.96
323 K, 25000 kPa	714.54
323 K, 90000 kPa	804.1
323.01 K, 30000 kPa	724.71
323.01 K, 40000 kPa	742.42
323.01 K, 50000 kPa	757.67
323.01 K, 60000 kPa	770.9
323.01 K, 69990 kPa	783.33
323.01 K, 80000 kPa	794.16
323.01 K, 100000 kPa	813.21
332.98 K, 3000 kPa	616.38
332.98 K, 5000 kPa	628.96
332.98 K, 10010 kPa	653.01
332.98 K, 50000 kPa	745.52
332.98 K, 60000 kPa	759.62
332.99 K, 15000 kPa	671.15
332.99 K, 20010 kPa	686.12
332.99 K, 25000 kPa	698.88
332.99 K, 29990 kPa	710.09
332.99 K, 39990 kPa	729.27
332.99 K, 69990 kPa	772.51
332.99 K, 80010 kPa	783.85
332.99 K, 90000 kPa	794.07
332.99 K, 100000 kPa	803.45
342.85 K, 3000 kPa	582.54
342.85 K, 5000 kPa	600.31
342.85 K, 10000 kPa	630.51
342.85 K, 15000 kPa	651.87
342.85 K, 20000 kPa	668.76
342.85 K, 25000 kPa	682.96
342.85 K, 30000 kPa	695.28
342.85 K, 40000 kPa	716.03
342.85 K, 60000 kPa	748.38
342.86 K, 50010 kPa	733.53
342.86 K, 70000 kPa	762.03
342.86 K, 79990 kPa	773.74
342.86 K, 90010 kPa	784.53
342.87 K, 100000 kPa	794.42
352.86 K, 5000 kPa	566.12
352.86 K, 10000 kPa	606.19
352.86 K, 15000 kPa	631.59
352.86 K, 19990 kPa	650.88
352.86 K, 25000 kPa	666.7
352.86 K, 29990 kPa	680.18
352.86 K, 39990 kPa	702.62
352.86 K, 50000 kPa	721.07
352.86 K, 59990 kPa	736.86
352.86 K, 70000 kPa	751.19
352.86 K, 79990 kPa	763.56
352.86 K, 90000 kPa	774.75
352.87 K, 99990 kPa	785.11
362.79 K, 4990 kPa	521.7
362.79 K, 10000 kPa	579.49
362.8 K, 15000 kPa	610.29
362.8 K, 19990 kPa	632.41
362.8 K, 24990 kPa	650.04
362.8 K, 30000 kPa	664.91
362.8 K, 40000 kPa	689.17
362.8 K, 49990 kPa	708.84
362.81 K, 59990 kPa	725.55
362.81 K, 70000 kPa	740.64
362.81 K, 80000 kPa	753.56
362.81 K, 90000 kPa	765.31
362.81 K, 99990 kPa	775.91
